Source: US7105529B2, “Substituted oxindole derivatives as protein tyrosine and as protein serine/threonine kinase inhibitors and compositions and methods of treating chemotherapy and radiation therapy side effects” (SmithKline Beecham Corporation, priority 1997, dated 2006)

Tests used:
[1] = test system: HDF normal diploid fibroblast cells; assay: FACS assay (cell death), HDF; type: cell-based; details: 50% cell death, 72 h
Protocol: These assays allow determination of both cell death and changes in cell cycle profile in cells following treatment of the compound. The assay is performend as follows: • 1. Cells are incubated in DMEM to which 10% FCS has been added in a humidified incubator at 37° C. and 5% by volume of CO2 in air. The cells are innoculated in 6-well plates at a density of 0.5–5×10^5 cells per well. • 2. The test compound is added in serial dilutions 24–36 h after plating in 0.5% DMSO. The plates are then incubated a further 72 h in the presence of the compound. During this time, cells in control cultures undergo at least three cell divisions. • 3. After incubation, the media is collected and cells are harvested by trypsinization. The cells and media are pooled and pelleted by centrifugation. • 4. The cell pellet is fixed in a final volume of 3 mL of 50% ice cold MeOH and incubated for a minimum of 30 min at −20° C. • 5. The cells are pelleted by centrifugation and resuspended in 0.5 mL PBS containing 1%FCS, […] Propidium Iodide (PI) and 5 mg/mL RNase A and incubated 30 min at 37° C. in the dark. • 6. The samples are analysed by flow cytometry using the relative incorporation of PI as a measure of DNA content of each cell. The % Dead cells is recorded as % of events with less than 2N DNA. […] HDF are normal diploid fibroblast cells. RKO are colon adenocarcinoma cells and MES/SA are ovarian carcinoma cells.

[2] = test system: HDF normal diploid fibroblast cells; assay: MTT assay, HDF; type: cell-based; details: Fibroblast, 72 h
Protocol: Compounds are tested for their ability to inhibit cell proliferation and cell viability. The metabolic conversion of 3-(4,5-dimethylthiazol-2-yl)-2,5-diphenyltetrazolium bromide (MTT, Sigma #M2128) to a reduced form is a commonly used measure of cellular viability. Following is the procedure: Cells are maintained in 75 cm^2 tissue culture flasks until ready for use. The cells are grown and plated for the assay in Dulbecco's modified Eagle's media (DMEM) containing 10% fetal bovine serum. For example, the following cell lines can be used: a) human foreskin fibroblasts (HFF); b) HT29 (human colon carcinoma cell line); c) MDA-MB468 (human breast carcinoma cell line); d) RKO (human colon adenocarcinoma cell line); e) SW620 (human colon carcinoma cell line); f A549 (human lung carcinoma cell line); and g) MIA PACA (human pancreatic carcinoma cell line). Cells are maintained at 37° C. in 10% CO2, 90% humidified air. Cells are plated in 96-well tissue culture plates at the densities listed below. 100 μL of cell suspension is added to each well of the 96-well plate except the top row of the plate which contains no cells and serves as a reference for the spectrophotometer. [table] Cells are incubated overnight in DMEM containing 10% fetal bovine serum at 37° C. in 10% CO2, 90% humidified air prior to dosing. […] Compounds with solubilities of less than 30 μM are dosed at the highest soluble concentration. Stock solutions of compounds are made in 100% dimethyl sulfoxide (DMSO). Stock solutions are diluted in DMEM containing 100 μg/ml gentamicin and 0.3 to 0.6% DMSO at the twice the highest concentration to be placed on the cells. If compounds have been dissolved in DMSO the final concentration of DMSO on the cells is kept below 0.3%. Three-fold serial dilutions are performed on each compound to prepare 10 concentrations of the compound for dosing. 100 μl of diluted compound is added to the 100 μl of media currently on the dish. For each concentration of compound, 2–4 replicate wells are prepared. Cells are returned to incubator and allowed to proliferate in the presence of compound for 72 h before addition of MTT. […] After 4 h incubation the media, compound and MTT mixture is aspirated from the plates and 100 μl of 100% DMSO is added to each well in addition to 25 μl of Sorenson's Buffer (0.1M glycine, 0.1M NaCl, pH 10.5). Quantitation of metabolic reduction of MTT in each plate is performed by reading optical density at 570 nm wavelength on a Molecular Devices UVmax microplate reader. […] HDF are normal diploid fibroblast cells. RKO are colon adenocarcinoma cells and MES/SA are ovarian carcinoma cells.

c-fms = biological target: T1, c-fms (Homo sapiens, UniProt P07333); assay: c-fms protein kinase assay (SPA); type: biochemical; details: Table 7, class symbols; read-out: c-fms kinase inhibition IC50
T1 sequence (P07333 539-972 limits assumed): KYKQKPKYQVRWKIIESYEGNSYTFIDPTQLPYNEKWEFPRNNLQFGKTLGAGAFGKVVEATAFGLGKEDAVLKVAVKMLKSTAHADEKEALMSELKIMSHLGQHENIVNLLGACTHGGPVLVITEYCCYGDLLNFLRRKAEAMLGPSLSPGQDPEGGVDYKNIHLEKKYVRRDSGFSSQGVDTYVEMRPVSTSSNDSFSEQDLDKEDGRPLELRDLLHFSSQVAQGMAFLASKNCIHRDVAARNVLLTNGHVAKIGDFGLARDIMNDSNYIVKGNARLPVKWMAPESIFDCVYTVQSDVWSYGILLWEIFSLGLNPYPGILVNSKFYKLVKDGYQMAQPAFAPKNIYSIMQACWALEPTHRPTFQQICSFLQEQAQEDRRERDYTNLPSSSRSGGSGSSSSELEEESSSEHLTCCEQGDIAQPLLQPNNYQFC
Protocol: c-fms protein kinase assays utilized the peptide substrate, biotin-[…]-NH2, as the phosphoryl group acceptor. The c-fms intracellular domain was expressed from a baculovirus expression system, as an amino-terminal GST fusion protein, and purified to homogeneity using Glutathione agarose from Sigma Chemical Co. Maximum activation of the enzyme was achieved by preactivation at room temperature for 120 min in the presence of 100 μM ATP and 15 mM MgCl2, This enzyme stock was diluted to 150 nM prior to using in the assay. Typically assays were performed in white, opaque, 96-well plates in a 45 ul assay volume including 15 ul 6% DMSO, with or without compounds, 15 ul of the preactivated, diluted enzyme, and 15 ul of a substrate mixture. Reactions contained 50 mM HEPES, pH 7.5, 1.7 μM ATP, 15 mM MgCl2, 3 μM peptide, 2.5 mM DTT, 50 mM NaCl and 0.15 uCi/assay [^32P]ATP. The controls were reactions in the presence (negative controls) or absence (positive controls) of 50 mM EDTA. Reactions were allowed to proceed for 90 min at room temperature. The reaction products were quantified using Scintillation Proximity technolgy. […] Plates were sealed and counted in a Packard Topcount scintillation counter. […]

CDK2 = CDK2 (Homo sapiens, UniProt P24941); assay: CDK2 substrate phosphorylation assay; type: biochemical
Protocol: CDK1 and CDK2 were both expressed utilizing a baculovirus expression system and were partially purified to comprise 20–80% of total protein, with no detectable competing reactions present. […] Reactions were terminated with 0.2–2 volumes of either 20% acetic acid or 50–100 mM EDTA buffered to pH 7 (substrate consumption <20%). The buffer employed in enzyme assays was either 30 mM HEPES 7.4 containing 0.15 M NaCl and 5% DMSO, the buffer 50 mM MOPS 7.0 containing 0.15 M NaCl and 5% DMSO, or the buffer 100 mM HEPES pH 7.5 containing 0.1 mg/mL BSA and 5% DMSO. Inhibitors were diluted in 100% DMSO prior to addition into the assay. Detection of peptide phosphorylation was accomplished by scintillation counting following either collection of peptide onto phosphocellulose filters (for reactions stopped with acetic acid), collection of peptide in wells of 96 well plates coated with Streptavidin (Pierce) (reactions were stopped with EDTA), or addition of Avidin coated Scintillant impregnated beads (Scintillation Proximity Assays from Amersham, reactions were stopped with EDTA).
CDK1 and CDK2 were both expressed utilizing a baculovirus expression system and were partially purified to comprise 20–80% of total protein, with no detectable competing reactions present. […]

[3] = test system: etoposide-induced alopecia; assay: Protection from chemotherapy-induced alopecia in rat pups; type: in vivo, Sprague-Dawley rat; details: 6 mg/kg etoposide intraperitoneally
Protocol: Protection from chemotherapy-induced alopecia is determined in 7 day old Sprague-Dawley rat pups. The treatment is carried out by administering the compounds topically to the head of the animal in doses from 0.01 to 10 mg/kg 2 h before and 2 h after the administration of a single dose of 6 mg/kg etoposide intraperitoneally. Six days after dosing, animals are scored visually for hair loss using a grading scale from 1 (complete hair loss) to 4 (no apparent hair loss). In this assay, the prior treatment of the animal with the compound of this invention results in a marked reduction in the severity of alopecia compared to vehicle treated controls. Under the above described conditions of treatment, the compounds of the present invention also protect against other toxicities of etoposide. […] Animals treated with the compounds of the present invention in combination with etoposide, in the schedule indicated above, gain weight normally and even exceed the body weight of control, untreated animals.

| Structure (SMILES) | IC50 [1] | IC50 [2] | other results |
| --- | --- | --- | --- |
| O=C1Nc2ccc3ncsc3c2C1=CNc1ccc2nn[nH]c2c1 [Example 101, 8-(3H-Benzotriazol-5-ylaminomethylene)-6,8-dihydro-1-thia-3,6-diaza-as-indacene-7-one] | > 5 µM | > 5 µM | – |
| CS(=O)(=O)Cc1ccc(NC=C2C(=O)Nc3ccc4ncsc4c32)cc1 [Example 76, 8-(4-Methylsulfonylmethyl-phenylamino-methylene)-6,8-dihydro-1-thia-3,6-diaza-as-indacen-7-one] | > 5 µM | > 5 µM | – |
| O=C1Nc2ccc3ncccc3c2/C1=C/Nc1ccc(CCO)cc1 [Example 32] | – | – | IC50 (c-fms): > 0.1 µM |
| CCC(C)Cc1cccc2c1C(=NNc1ccc(S(N)(=O)=O)cc1)C(=O)N2 (stereo not drawn) [Example 11] | > 5 µM | – | – |
| CN(C)S(=O)(=O)c1ccc(NC=C2C(=O)Nc3ccc(-c4cnco4)cc32)cc1 [Example 35] | > 5 µM | > 5 µM | – |
| CNS(=O)(=O)Cc1ccc(NN=C2C(=O)Nc3cc(C)c(O)c(C)c32)cc1 [Example 99] | > 5 µM | 0.6 to 1 µM | IC50 (CDK2): 0.051 to 0.1 µM |
| COc1cc([C@@H]2c3cc4c(cc3[C@@H](O[C@@H]3O[C@@H]5CO[C@@H](C)O[C@H]5[C@H](O)[C@H]3O)[C@H]3COC(=O)[C@H]23)OCO4)cc(OC)c1O [etoposide] | – | – | body weight gain, etoposide alone compared to untreated animals [3]: dramatic lack of weight gain |
| CC(C)COC(=O)c1ccc2c(c1)C(=CNc1ccc(S(N)(=O)=O)cc1)C(=O)N2 [Example 103, 2-Oxo-3-(4-sulfamoyl-phenylamino-methylene)-2,3-dihydro-1H-indole-5-carboxylic acid isobutyl ester] | – | 1.1 to 5 µM | – |
| CC(C)(CO)CNS(=O)(=O)c1ccc(NC=C2C(=O)Nc3ccc4ncsc4c32)cc1 [Example 77, N-(3-Hydroxy-2,2-dimethyl-propyl)4-[(7-oxo-6,7-dihydro-1-thia-3,6-diaza-as-indacen-8-ylidenemethyl)-amino]-benzenesulfonamide] | > 5 µM | > 5 µM | – |
